{"source": "patent US10344279B2", "about": "“Methods for the prevention and the treatment of extracapillary glomerulonephritis” (INSERM (Institut National de la Sante et de la Recherche …, priority 2014, dated 2019)", "key": {"miR-92a": {"test_system": "miR-92a", "test": "miR-92a expression in kidney / isolated glomeruli of NTS-challenged mice (in situ hybridization, RT-qPCR)", "assay_type": "in vivo", "experimental": "(§1) The glomerulonephritis was induced on male mice (10-12 weeks of age) by intravenous injection of 15 μL of sheep anti-glomerular basement membrane (GBM) nephrotoxic serum (NTS), which was diluted with 85 μL of sterile phosphate buffer solution. Serum injections were repeated twice (on days 2 and 3) at 6 μL/g of body weight and 7 μL/g respectively.\nFor miRNA expression analysis, RNA from kidney cortex were prepared with Trizol (Life Technologies) according to manufacturer's instructions. miRNA expression was determined using Taqman miRNA assay (Life technologies) according to manufacturer's protocols. U6 snRNA was used as endogenous control.\nIn situ hybridization was performed as previously described by Bonaucr et al (66). Briefly, 5 μm-thick kidney paraffin embedded sections were cut and fixed in PFA 4% for 10 min. Then sections were washed with 1× PBS and then acetylated for 10 min. After washes, sections were incubated with […] (Sigma-Aldrich) for 10 min. at 37° C. After washings, sections were incubated with hybridization buffer for 5 h at room temperature. miRNA probes (miR-92a probe double-DIG labeled LNA probes, Exiqon, final concentration 20 nM) was mixed with denaturation buffer and added to the sections followed by incubation over night at 56° C. U6snRNA probe (3′-DIG labeled LAN, probe, Exiqon) was used at 10 nM final concentration and as a positive control. […]"}, "primary podocytes": {"test_system": "primary podocytes", "test": "Podocyte outgrowth (proliferation) assay from isolated decapsulated glomeruli", "assay_type": "cell-based, mouse", "details": "for podocyte outgrowth area / proliferation of cultured primary podocytes: Pod-Stat3 WT podocytes treated with Stattic, quantified at day 4", "experimental": "Mouse kidneys were extracted, minced, and digested in 2 mg/mL collagenase I solution (Gibco) in RPMI 1640 (Invitrogen) at 37° C. for 3 minutes, then filtered through a 70-μm cell strainer and one more through a 40-μm cell strainer. The homogenate was centrifuged at 720 g for 6 minutes and cells plated. Isolated glomeruli were then collected in Phosphosafc extraction buffer (Novagen) for protein extraction or in RLT extraction buffer (Qiagen) for total RNA extraction. For podocyte primary culture, freshly isolated glomeruli were plated in 6-plate dishes in RPMI 1640 (Invitrogen) supplemented by 10% Fetal Calf Serum (Biowest) and 1% penicillin-streptomycin (Invitrogen). The outgrowth of podocytes started between days 2 and 3. Podocyte outgrowth area was quantified at day 4 using ImageJ software. After 4 days of primary culture, podocytes were trypsinized then plated into μ-Dish 35 mm high with Culture-Insert (Ibidi). Ibidi's wounding inserts were used for cell migration studies. The coverage of the 500-μm gap was assessed after 12 hours of culture and podocyte migration area was quantified using ImageJ software. The effects of HB-EGF (10 ng/mL, Preprotech) or AG1478 (1 μM, Calbiochem) or anti-mIL-6 monoclonal antibody MP5-20F3 (10 μg/mL, eBiosciences) or Stattic (2 μM, Calbiochem) on differentiated podocytes was applied during 16 hours. After stimulation, podocytes were scrapped in Phosphosafe buffer for protein extraction or in RLT buffer for total RNA extraction. […] Anti-miR-Control#1 was used as control (All from Ambion, 50 nM)."}, "NTS-challenged mice": {"test_system": "NTS-challenged mice", "test": "NTS-induced crescentic glomerulonephritis (RPGN): albuminuria, BUN, crescentic glomeruli", "assay_type": "in vivo", "experimental": "Podocyte-specific disruption of Stat3 mice were generated by crossing podocin-Cre positive mice (63) with Stat3 floxed mice (64) on C57BL6/J background. Their age-matched littermates with no deletion of Stat3 in any cells are considered as controls. […] Stattic (25 mg/kg) was administered in i.p. way every other day for 10 days. 10 weeks old 129S2/SvPasCr male mice were randomly treated with Stattic and were compared to vehicle-treated (DMSO) littermates.\nas §1\nUrinary creatinine and blood urea nitrogen (BUN) concentrations were analyzed by a standard colorimetric method (Olympus AU400) at the Biochemistry Laboratory of Institut Claude Bernard (IFR2, Faculté de Médecine Paris Diderot). Urinary albumin excretion was measured using a specific ELISA assay for quantitative determination of albumin in mouse urine (CellTrend GmbH).\nKidneys were harvested and fixed in 4% formal. Paraffin-embedded sections (5 μm thick) were stained by Masson's trichrome to evaluate kidney morphology and determine proportion of crescentic glomeruli by a blinded examination on at least 50 glomeruli per section.\nFor preventive strategy, antagomiR treatment (12 mg/kg) started 3 days before NTS injection. AntagomiRs (VBC biotech, Vienna) were delivered by retro-orbital i.v. injections under brief anesthesia. Second and third injections were performed on days 1 and 3 with NTS injection. For curative strategy, antagomir were injected on days 4, 5 and 8 after NTS. A scramble antagomiR (Antagomir-Control) was used as control. The sequences were obtained from previously published manuscript (66). In the miR-92 antagomir and control antagomir, the 2′O RNA base are methylated followed by first two bases and last 3 bases are phosphorothiated to increase the stability of antagomir from degradation. In addition, a cholesterol-TEG was added at the 3′ for easy entry of antagomir into the cells. AntagomiR-Control (SEQ ID NO: 7, anti-miR-ctrl): 5′-[…]-3′ and antagomiR-92a (SEQ ID NO: 8, anti-miR-92a): 5′-[…]-3′ as shown to be effective after in vivo administration in kidneys (34, 67). Saline-treated mice were used as control of the scramble antagomiR."}, "[1]": {"details": "Stattic 25 mg/kg i.p. every other day, day 10 after NTS, 129S2 mice"}, "[2]": {"details": "antagomiR 12 mg/kg i.v., preventive strategy, 10 days after NTS, vs anti-miR-ctrl or vehicle"}}, "data": [{"compound": "O=[N+]([O-])c1ccc2c(c1)S(=O)(=O)C=C2", "note": "[Stattic]", "values": [{"measurement": "MicroRNA-92a expression in kidney", "setting": "miR-92a; NTS-challenged Pod-Stat3 WT animals treated with Stattic, in situ hybridization, confirmed by RT-qPCR", "value": "not increased"}, {"measurement": "podocyte outgrowth area / proliferation of cultured primary podocytes", "setting": "primary podocytes", "value": "inhibited"}, {"measurement": "podocyte outgrowth area / proliferation of cultured primary podocytes", "setting": "primary podocytes; listed as STAT3 inhibitor", "value": "significantly reduced"}, {"measurement": "albuminuria (urinary albumin excretion rate)", "setting": "NTS-challenged mice; [1]", "value": "trend to decreased"}, {"measurement": "alleviation of the rise in blood urea nitrogen (BUN) concentrations", "setting": "NTS-challenged mice; [1]", "value": 50, "unit": "%"}, {"measurement": "proportion of crescentic glomeruli", "setting": "NTS-challenged mice; [1]", "value": "reduced"}]}, {"compound": "anti-miR-92a: 2′O-methylated, end-phosphorothioated antagomir with 3′ cholesterol-TEG, SEQ ID NO: 8, 5′-CAGGCCGGGACAAGUGCAAUA-3′ (VBC biotech) (listed as RNA, chemistry not fully specified)", "values": [{"measurement": "miR-92a expression in isolated glomeruli during RPGN", "setting": "miR-92a; antagomiR 12 mg/kg i.v. retro-orbital, preventive strategy, 10 days after NTS", "value": "specific inhibition"}, {"measurement": "podocyte outgrowth", "setting": "primary podocytes; anti-miR-92a transfected (50 nM), over 4 days, vs control cells or anti-miR control", "value": "decrease"}, {"measurement": "kidney dysfunction (blood urea nitrogen concentrations)", "setting": "NTS-challenged mice; [2]", "value": "strong decrease"}, {"measurement": "urinary albumin excretion", "setting": "NTS-challenged mice; [2]", "value": "strong decrease"}, {"measurement": "glomerular crescents formation", "setting": "NTS-challenged mice; antagomiR 12 mg/kg i.v., preventive strategy, vs NTS+anti-miR-ctrl, P<0.05", "value": -44, "unit": "%"}, {"measurement": "results in curative strategy (miR-92a expression, albuminuria, BUN, p57-positive cells)", "setting": "NTS-challenged mice; antagomir injection on days 4, 5 and 8 after NTS, read at day 10", "value": "validated"}]}]}
